Measurements as given in PMC6420064 (Journal of medicinal chemistry, 2019).
“Also recorded” adds a separate entry of the source. One block for each compound: values may come before it.

What was measured:
GlyT2 [1] = conditions: read-out: GlyT2 IC50; cited from earlier work
[2] = following IV administration; cited from earlier work
[3] = tested on: nerve ligation rat model of neuropathic pain; assay type: in vivo; conditions: 30 mg/kg ip, compared to vehicle
male Sprague Dawley rats = assay: Side effects in the analgesia study; assay type: in vivo, rat; conditions: 30 mg/kg ip
GlyT1 = conditions: cited from earlier work
human GlyT2a = target: T1, human GlyT2a (Homo sapiens, UniProt Q9Y345); assay type: cell-based
T1 sequence (Q9Y345 1-797): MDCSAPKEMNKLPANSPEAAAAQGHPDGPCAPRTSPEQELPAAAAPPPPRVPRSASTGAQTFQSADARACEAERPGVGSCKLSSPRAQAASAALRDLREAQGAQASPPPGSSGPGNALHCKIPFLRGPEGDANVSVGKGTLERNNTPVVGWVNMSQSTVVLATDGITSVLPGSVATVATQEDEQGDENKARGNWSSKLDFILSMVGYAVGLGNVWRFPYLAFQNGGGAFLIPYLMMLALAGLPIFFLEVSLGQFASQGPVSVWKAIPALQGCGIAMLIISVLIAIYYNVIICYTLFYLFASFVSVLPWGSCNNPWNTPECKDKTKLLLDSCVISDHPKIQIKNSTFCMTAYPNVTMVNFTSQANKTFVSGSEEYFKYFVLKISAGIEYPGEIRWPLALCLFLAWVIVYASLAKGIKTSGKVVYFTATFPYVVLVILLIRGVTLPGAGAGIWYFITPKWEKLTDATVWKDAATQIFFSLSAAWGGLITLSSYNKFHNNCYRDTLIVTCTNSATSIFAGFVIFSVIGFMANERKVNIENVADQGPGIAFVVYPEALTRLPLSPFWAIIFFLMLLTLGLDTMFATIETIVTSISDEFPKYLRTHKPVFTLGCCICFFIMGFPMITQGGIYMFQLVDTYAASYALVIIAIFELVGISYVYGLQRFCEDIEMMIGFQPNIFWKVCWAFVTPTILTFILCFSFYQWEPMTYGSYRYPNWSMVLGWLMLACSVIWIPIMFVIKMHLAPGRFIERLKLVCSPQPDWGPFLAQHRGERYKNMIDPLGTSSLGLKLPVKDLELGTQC

human GlyT1b = target: T2, human GlyT1b (Homo sapiens, UniProt P48067); assay type: cell-based; conditions: 3 μM (maximal concentration)
T2 sequence (P48067 1-652 isoform P48067-3): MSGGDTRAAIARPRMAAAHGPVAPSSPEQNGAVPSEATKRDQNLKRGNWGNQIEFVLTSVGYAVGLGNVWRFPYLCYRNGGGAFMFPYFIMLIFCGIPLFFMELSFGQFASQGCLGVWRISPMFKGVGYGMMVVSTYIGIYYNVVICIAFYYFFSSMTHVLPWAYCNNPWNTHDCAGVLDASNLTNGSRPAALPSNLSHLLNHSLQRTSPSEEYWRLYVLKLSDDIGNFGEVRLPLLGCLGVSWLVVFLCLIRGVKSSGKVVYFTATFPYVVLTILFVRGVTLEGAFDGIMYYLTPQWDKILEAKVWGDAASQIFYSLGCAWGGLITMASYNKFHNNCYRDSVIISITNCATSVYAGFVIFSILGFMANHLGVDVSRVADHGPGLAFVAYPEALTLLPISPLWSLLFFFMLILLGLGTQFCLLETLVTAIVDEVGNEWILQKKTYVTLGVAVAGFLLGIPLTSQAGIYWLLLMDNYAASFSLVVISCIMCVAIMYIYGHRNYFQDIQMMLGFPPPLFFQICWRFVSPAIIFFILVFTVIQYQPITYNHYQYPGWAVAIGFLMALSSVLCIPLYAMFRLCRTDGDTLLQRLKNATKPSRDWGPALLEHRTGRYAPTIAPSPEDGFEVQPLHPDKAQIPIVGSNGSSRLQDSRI

GlyT2 [4] = target: T3, GlyT2 (Homo sapiens, UniProt Q9Y345); assay type: cell-based
T3 sequence (Q9Y345 1-797): T1 sequence (Q9Y345 1-797)

[5] = Stability in human plasma; assay type: in vitro ADME
Stability in rat plasma = assay type: in vitro ADME
[6] = Stability in human liver microsomes; assay type: in vitro ADME; conditions: for half-life at 1 μM: human, human liver microsomes, pH 7.4
[7] = Stability in rat liver microsomes; assay type: in vitro ADME
GlyT2 [8] = target: T3, GlyT2; assay: Electrophysiology washout assay; assay type: cell-based; conditions: IC50 concentration of inhibitor, after 25 minutes wash
Adrenergic α2A receptor = target: T4, Adrenergic α2A receptor (Homo sapiens, UniProt P08913); assay: Selectivity panel, displacement of radioactive ligand; assay type: binding; conditions: 10 μM
T4 sequence (P08913 1-465): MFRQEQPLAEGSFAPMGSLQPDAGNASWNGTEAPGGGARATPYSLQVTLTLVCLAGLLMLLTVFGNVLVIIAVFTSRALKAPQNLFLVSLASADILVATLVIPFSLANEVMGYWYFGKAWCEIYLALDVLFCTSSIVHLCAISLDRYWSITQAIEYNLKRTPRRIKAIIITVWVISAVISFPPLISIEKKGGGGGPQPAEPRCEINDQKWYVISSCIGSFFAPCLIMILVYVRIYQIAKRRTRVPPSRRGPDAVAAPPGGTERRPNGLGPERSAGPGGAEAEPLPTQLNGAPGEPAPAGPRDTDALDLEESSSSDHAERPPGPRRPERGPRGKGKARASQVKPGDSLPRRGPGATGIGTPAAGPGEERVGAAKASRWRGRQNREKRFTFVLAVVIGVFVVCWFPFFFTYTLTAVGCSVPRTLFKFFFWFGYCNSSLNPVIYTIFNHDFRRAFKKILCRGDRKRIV

[9] = target: norepinephrine transporter (Homo sapiens, UniProt P23975); assay: as above; assay type: binding; conditions: 10 μM
norepinephrine transporter, sequence (P23975 whole entry, species assumed): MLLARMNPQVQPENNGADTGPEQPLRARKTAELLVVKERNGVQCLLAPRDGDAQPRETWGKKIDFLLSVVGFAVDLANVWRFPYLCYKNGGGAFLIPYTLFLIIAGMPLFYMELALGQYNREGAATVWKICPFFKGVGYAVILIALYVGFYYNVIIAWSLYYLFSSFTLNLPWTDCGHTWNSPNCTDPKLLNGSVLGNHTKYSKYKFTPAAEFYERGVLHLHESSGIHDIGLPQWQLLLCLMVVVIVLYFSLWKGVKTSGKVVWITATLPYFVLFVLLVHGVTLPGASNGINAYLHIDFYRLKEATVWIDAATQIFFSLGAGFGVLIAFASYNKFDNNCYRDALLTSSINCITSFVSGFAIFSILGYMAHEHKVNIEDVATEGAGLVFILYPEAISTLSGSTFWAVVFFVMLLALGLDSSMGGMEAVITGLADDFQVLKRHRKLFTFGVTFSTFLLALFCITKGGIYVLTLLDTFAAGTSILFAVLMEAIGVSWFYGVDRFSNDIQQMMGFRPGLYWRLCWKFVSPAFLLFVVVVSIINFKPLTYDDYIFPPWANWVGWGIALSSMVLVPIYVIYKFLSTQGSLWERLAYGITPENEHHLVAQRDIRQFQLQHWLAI

μ opioid receptor (μOR) = μ opioid receptor (μOR) (Homo sapiens, UniProt P35372); assay: as above; assay type: binding; conditions: 10 μM
μ opioid receptor (μOR), sequence (P35372 whole entry, species assumed): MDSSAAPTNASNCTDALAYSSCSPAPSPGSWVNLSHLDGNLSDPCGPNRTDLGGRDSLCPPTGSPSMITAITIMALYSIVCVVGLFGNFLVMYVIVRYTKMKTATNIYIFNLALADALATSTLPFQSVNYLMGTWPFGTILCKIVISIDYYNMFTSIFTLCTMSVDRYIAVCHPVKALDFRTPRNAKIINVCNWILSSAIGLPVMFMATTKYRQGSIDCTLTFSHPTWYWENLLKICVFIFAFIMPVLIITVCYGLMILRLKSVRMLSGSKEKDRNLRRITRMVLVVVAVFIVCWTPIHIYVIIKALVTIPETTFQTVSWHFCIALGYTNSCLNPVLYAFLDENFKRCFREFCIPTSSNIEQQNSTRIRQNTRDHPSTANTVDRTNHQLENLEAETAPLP

μOR = μOR (Homo sapiens, UniProt P35372); assay: μOR agonist/antagonist activity in AtT20 cells expressing μORs; assay type: cell-based; conditions: 1 μM
μOR, sequence (P35372 whole entry): as the sequence (P35372 whole entry, species assumed) above

Nav channels = assay: Pain target screen, Nav channels
Cav channels = assay: Pain target screen, Cav channels
[10] = target: α7 nicotinic acetylcholine receptors (Homo sapiens, UniProt P36544); assay: Pain target screen, α7 nicotinic acetylcholine receptors
α7 nicotinic acetylcholine receptors, sequence (P36544 23-502): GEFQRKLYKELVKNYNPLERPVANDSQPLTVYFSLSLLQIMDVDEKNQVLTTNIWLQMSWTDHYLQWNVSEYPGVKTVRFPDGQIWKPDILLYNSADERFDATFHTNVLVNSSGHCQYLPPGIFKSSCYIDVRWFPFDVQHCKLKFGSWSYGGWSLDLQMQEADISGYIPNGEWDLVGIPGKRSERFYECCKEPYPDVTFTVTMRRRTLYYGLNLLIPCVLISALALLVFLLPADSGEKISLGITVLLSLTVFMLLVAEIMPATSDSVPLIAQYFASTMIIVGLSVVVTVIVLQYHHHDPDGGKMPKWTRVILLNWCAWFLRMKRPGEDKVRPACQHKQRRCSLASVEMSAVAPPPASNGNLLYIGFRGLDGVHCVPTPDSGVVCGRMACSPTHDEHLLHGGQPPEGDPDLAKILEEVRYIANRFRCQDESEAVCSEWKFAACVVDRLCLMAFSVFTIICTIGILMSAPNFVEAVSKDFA

CB1 = CB1 (Homo sapiens, UniProt P21554); assay: Lipid receptor screen, agonist/antagonist
CB1, sequence (P21554 whole entry, species assumed): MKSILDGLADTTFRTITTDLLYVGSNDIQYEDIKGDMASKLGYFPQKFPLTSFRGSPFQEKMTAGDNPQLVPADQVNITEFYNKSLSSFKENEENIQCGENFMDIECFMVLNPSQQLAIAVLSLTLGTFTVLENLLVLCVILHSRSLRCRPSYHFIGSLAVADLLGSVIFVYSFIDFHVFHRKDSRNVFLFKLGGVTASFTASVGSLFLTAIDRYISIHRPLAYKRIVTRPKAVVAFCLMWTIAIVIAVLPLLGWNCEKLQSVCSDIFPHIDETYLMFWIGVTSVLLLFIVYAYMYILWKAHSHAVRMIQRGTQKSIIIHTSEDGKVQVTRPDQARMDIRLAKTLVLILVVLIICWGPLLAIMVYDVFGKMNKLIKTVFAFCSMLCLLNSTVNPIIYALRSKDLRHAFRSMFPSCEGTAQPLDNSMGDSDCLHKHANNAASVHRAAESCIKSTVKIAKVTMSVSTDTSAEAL

CB2 = CB2 (Homo sapiens, UniProt P34972); assay: Lipid receptor screen, agonist/antagonist
CB2, sequence (P34972 whole entry, species assumed): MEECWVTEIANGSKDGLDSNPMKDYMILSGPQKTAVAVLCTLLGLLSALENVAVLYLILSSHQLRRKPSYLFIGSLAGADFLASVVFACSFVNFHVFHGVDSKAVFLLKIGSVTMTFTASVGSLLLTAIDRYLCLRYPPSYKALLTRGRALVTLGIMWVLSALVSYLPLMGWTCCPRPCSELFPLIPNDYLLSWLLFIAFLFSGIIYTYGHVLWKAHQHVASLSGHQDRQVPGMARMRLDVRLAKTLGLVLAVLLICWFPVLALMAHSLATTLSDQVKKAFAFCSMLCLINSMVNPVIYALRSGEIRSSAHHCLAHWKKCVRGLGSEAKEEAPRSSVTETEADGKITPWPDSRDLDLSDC

[11] = tested on: sphingosine-1-phosphate receptor; assay: Lipid receptor screen, agonist/antagonist
[12] = In vivo pharmacokinetic study, plasma and brain exposure; design: species or system rat

SMILES: N[C@@H](COC(c1cccc(F)c1)c1ccccc1OCc1ccccc1)C(=O)O (stereo partly shown) [Compound 1, ALX1393]
- IC50 (GlyT2 [1]): 100 nM
- ratio of unbound drug in brain and plasma (Kp,uu) [2]: 0.05

SMILES: COc1cc(C(=O)NCC2(N(C)C)CCCC2)cc(OC)c1OCc1ccccc1 [Compound 2, ORG25543]
- reversal of allodynia (analgesia) [3]: Non-significant reversal of allodynia
- animals with side effects (male Sprague Dawley rats): 4 out of the 6
- duration of side effects post injection (male Sprague Dawley rats): up to 60 min
- side effects (male Sprague Dawley rats): more severe side effects
- IC50 (GlyT2 [1]): 16 nM
- activity at GlyT1 (GlyT1): no appreciable activity

SMILES: CCCCCCCC/C=C\CCCCCCCC(=O)NCC(=O)O [Compound 4, N-oleoyl glycine]
- effect on GlyT1 (GlyT1; concentrations up to 10 μM): no effect

SMILES: CCCCC/C=C\C/C=C\C/C=C\C/C=C\CCCC(=O)NCC(=O)O [Compound 5, N-arachidonyl glycine]
- activity at GlyT1 (GlyT1): little activity

SMILES: CCCCCCCC/C=C\CCCCCCCC(=O)N[C@@H](CCCC)C(=O)O [Compound 14, (2S)-2-[[(Z)-octadec-9-enoyl]amino]hexanoic acid]
- fold less potent than 10 at GlyT2 (human GlyT2a; relative to 10): 2 fold

Now from value to compound, other results behind:

- fold improvement in GlyT2 activity (human GlyT2a; relative to 14): ~ 9 fold
SMILES: CCCCCCCC/C=C\CCCCCCCC(=O)N[C@@H](CCSC)C(=O)O [Compound 12, (2S)-4-methylsulfanyl-2-[[(Z)-octadec-9-enoyl]amino]butanoic acid]

- inhibition of GlyT1 glycine currents (human GlyT1b): not reduced
- mechanism of GlyT2 inhibition (GlyT2 [4]): non-competitive inhibitor
- half-life at 1000 ng/mL ([5]; human, human plasma (pooled)): > 17 h
- fold improvement of degradation half-life (Stability in rat plasma; rat plasma, relative to 4): ~ 3 fold
- stability in human liver microsomes [6]: stable
- half-life at 1 μM [6]: > 4.25 h
- stability in rat liver microsomes [7]: rapidly metabolised
SMILES: CCCCCCCC/C=C\CCCCCCCC(=O)N[C@@H](CCCCN)C(=O)O.Cl [Compound 32, (2S)-6-amino-2-[[(Z)-octadec-9-enoyl]amino]hexanoic acid.HCl]

- inhibition of GlyT1 glycine currents (human GlyT1b): little inhibition
- recovery of transport after washout (GlyT2 [8]): completely restored
- degradation in human plasma [5]: did not exhibit measurable degradation
- degradation in rat plasma (Stability in rat plasma): did not exhibit measurable degradation
- stability in human liver microsomes [6]: stable
- half-life at 1 μM [6]: > 4.25 h
- stability in rat liver microsomes [7]: minimally degraded
- half-life at 1 μM ([7]; rat, rat liver microsomes, pH 7.4): > 4.25 h
- displacement of radioactive ligands (Adrenergic α2A receptor): greater than 50%
- displacement of radioactive ligands [9]: greater than 50%
- displacement of radioactive ligands (μ opioid receptor (μOR)): greater than 50%
- activity as a μOR agonist or antagonist (μOR): no activity
- inhibition of α7 nicotinic acetylcholine receptors [10]: no significant inhibition
- activity as agonist or antagonist at CB1 (CB1): no activity
- activity as agonist or antagonist at CB2 (CB2): no activity
- activity as agonist or antagonist at sphingosine-1-phosphate receptor [11]: no activity
- concentration of unbound drug (Cunbound) in brain at Cmax ([12]; 27.5 mg/kg ip): approximately 90 nM
- Cmax Brain ([12]; single 27.5 mg/kg ip, Sprague Dawley rats): 1854 ng/g
SMILES: CCCCCCCC/C=C\CCCCCCCC(=O)N[C@H](CCCCN)C(=O)O.Cl [Compound 33, (2R)-6-amino-2-[[(Z)-octadec-9-enoyl]amino]hexanoic acid.HCl]
- inhibition of Nav channels (Nav channels): no significant inhibition
- inhibition of Cav channels (Cav channels): no significant inhibition
- reversal of allodynia (analgesia) [3]: significant analgesia; also recorded: Significant reversal of allodynia
- duration of side effects post injection (male Sprague Dawley rats): up to 15 min
- side effects (male Sprague Dawley rats): Mild side effects

- fold reduction of GlyT2 potency (human GlyT2a; relative to 32): ~ 22 fold
SMILES: CCCCCCCC/C=C\CCCCCCCC(=O)NCCCCCN.Cl [Compound 37, (Z)-N-(5-aminopentyl)octadec-9-enamide.HCl]
